# Results published in patent publication US8778919B2, “Cyclic anilino—pyridinotriazines” (Janssen Pharmaceutica NV, priority 2005, dated 2014).
# Key:
# Assay type in all cases: biochemical
# [1] = biological target: GSK-3β (Homo sapiens, UniProt P49841); assay: GSK-3 kinase assay (C1), GSK-3β; settings: 1 μM ATP, read-out: C1 Score β
# Description: (§1) In vitro GSK-3 assays were performed at room temperature in a 100 μl reaction volume of 25 mM Tris (pH 7.4) containing 10 mM MgCl2.6H2O, 1 mM DTT, 0.1 mg/ml BSA, 5% glycerol, 5.7 ng/μl GSK-3β or 0.25 ng/μl GSK-3α, 5 μM biotinylated CREB peptide, 1 μM ATP, 0.85 μCi/ml ^33P-ATP and a suitable amount of a test compound. After one hour, the reaction was terminated by adding 70 μl of Stop mix (0.1 mM ATP, 5 mg/ml streptavidin coated PVT SPA beads, pH 11.0). The beads were allowed to settle overnight and the radioactivity attached to the beads was counted in a microtiter plate scintillation counter and compared with the results obtained in a control experiment (without the presence of a test compound) in order to determine the percentage of GSK-3 inhibition. The IC50 value, i.e. the concentration (M) of the test compound at which 50% of GSK-3 is inhibited, was calculated from the dose response curve obtained by performing the above-described GSK-3 assay in the presence of different amounts of the test compound. Score 1=pIC50 value<6, Score 2=pIC50 value from 6-7, Score 3=pIC50 value from 7-8, Score 4=pIC50 value>8.
# [2] = biological target: GSK-3α (Homo sapiens, UniProt P49840); assay: GSK-3 kinase assay (C1), GSK-3α; settings: 1 μM ATP, read-out: C1 Score α
# Chain of GSK-3α (P49840 whole entry, species assumed): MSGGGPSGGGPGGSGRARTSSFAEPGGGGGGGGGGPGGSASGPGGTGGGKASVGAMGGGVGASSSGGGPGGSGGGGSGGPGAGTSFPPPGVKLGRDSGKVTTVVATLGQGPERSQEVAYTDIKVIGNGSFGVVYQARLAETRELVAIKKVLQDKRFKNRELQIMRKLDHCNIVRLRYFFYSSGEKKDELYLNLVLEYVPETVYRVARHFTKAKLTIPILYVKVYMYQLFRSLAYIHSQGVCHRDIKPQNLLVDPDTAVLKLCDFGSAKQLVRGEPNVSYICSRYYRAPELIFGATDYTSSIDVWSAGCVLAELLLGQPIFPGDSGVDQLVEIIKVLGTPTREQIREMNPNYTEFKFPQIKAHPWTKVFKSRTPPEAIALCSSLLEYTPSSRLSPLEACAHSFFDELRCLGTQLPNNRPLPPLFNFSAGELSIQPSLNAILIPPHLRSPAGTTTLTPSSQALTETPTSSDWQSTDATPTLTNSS
# Description: as §1
# [3] = biological target: CDK1/cyclinB (h) (Homo sapiens, UniProt P06493); assay: Kinase profiling C3.2 CDK1/cyclinB human; settings: test concentration of 10^−6 M
# Chain of CDK1/cyclinB (h) (P06493 whole entry): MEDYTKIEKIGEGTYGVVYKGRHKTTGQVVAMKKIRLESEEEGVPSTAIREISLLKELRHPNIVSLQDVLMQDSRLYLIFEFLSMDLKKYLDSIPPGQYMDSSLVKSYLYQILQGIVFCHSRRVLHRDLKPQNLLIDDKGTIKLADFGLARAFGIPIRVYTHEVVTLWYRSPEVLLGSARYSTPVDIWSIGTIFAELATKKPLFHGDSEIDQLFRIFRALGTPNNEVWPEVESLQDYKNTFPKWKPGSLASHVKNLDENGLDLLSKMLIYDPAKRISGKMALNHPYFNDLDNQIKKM
# Chain of CDK1/cyclinB (h) (P14635 whole entry partner): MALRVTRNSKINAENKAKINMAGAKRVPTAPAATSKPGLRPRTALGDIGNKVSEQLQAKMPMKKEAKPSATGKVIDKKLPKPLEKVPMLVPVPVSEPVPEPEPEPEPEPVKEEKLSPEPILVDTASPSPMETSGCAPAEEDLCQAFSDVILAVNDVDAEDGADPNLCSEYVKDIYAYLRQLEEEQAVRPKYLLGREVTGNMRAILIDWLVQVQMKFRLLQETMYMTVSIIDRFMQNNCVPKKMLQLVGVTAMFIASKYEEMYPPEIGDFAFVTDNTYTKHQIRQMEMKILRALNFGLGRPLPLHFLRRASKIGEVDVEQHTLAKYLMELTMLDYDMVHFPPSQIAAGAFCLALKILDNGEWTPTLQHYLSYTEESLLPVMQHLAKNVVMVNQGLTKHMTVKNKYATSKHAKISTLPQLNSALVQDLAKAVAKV
# Description: (§2) The in vitro inhibition of a panel of kinases was assessed using either the glass-fiber filter technology as described by Davies, S. P. et al., Biochem J. (2000), 351; p. 95-105. In the glass-fiber filter technology the activity of the kinase of interest is measured using an appropriate substrate that is incubated with the aforementioned kinase protein in the presence of (^33P) radiolabeled ATP. (^33P) Phosporylation of the substrate is subsequently measured as radioactivity bound on a glassfiber-filter.
# (§3) All kinases are pre-diluted to a 10× working concentration prior to addition into the assay. The composition of the dilution buffer for each kinase is detailed below.
# (§4) All substrates are dissolved and diluted to working stocks in de-ionised water, apart from histone H1 that is stored in 10× working stock in 20 mM MOPS pH 7.4.
# (§5) In a final reaction volume of 25 μl, CDK1/cyclinB (h) (5-10 mU) is incubated with 8 mM MOPS pH 7.0, 0.2 mM EDTA, 0.1 mg/ml histone H1, 10 mM MgAcetate and [γ-^33P-ATP] (specific activity approx. 500 cpm/pmol, concentration as required). The reaction is initiated by the addition of the MgATP mix. After incubation for 40 minutes at room temperature, the reaction is stopped by the addition of 5 μl of a 3% phosphoric acid solution. 10 μl of the reaction is then spotted onto a P30 filtermat and washed three times for 5 minutes in 75 mM phosphoric acid and once in methanol prior to drying and scintillation counting.
# [4] = biological target: CDK5/p35 human (Homo sapiens, UniProt Q00535); assay: Kinase profiling C3.6 CDK5/p35 human; settings: CDK5/p35, test concentration of 10^−6 M
# Chain of CDK5/p35 human (Q00535 whole entry): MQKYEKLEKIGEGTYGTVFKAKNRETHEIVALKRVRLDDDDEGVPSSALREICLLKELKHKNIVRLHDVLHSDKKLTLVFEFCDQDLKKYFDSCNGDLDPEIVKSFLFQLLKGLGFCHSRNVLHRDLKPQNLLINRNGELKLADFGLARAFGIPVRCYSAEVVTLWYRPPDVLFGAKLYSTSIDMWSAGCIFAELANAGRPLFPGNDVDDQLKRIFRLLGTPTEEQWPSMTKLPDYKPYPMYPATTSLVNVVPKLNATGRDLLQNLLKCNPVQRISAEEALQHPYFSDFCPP
# Chain of CDK5/p35 human (Q15078 whole entry partner): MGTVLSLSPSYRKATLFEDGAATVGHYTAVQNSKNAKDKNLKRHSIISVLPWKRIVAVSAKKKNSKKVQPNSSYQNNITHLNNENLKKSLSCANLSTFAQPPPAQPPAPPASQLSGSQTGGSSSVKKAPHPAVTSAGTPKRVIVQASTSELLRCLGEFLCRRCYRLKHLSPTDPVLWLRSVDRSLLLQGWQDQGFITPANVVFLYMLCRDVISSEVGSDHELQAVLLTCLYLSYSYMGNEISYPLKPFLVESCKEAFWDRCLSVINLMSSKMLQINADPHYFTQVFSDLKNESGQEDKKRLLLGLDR
# Description: as §2, §3, §4
# as §5, with “CDK5/p35 human” for “CDK1/cyclinB (h)”
# [5] = biological target: CDK3/cyclinE (h) (Homo sapiens, UniProt Q00526); assay: Kinase profiling C3.5 CDK3/cyclinE human; settings: test concentration of 10^−6 M
# Description: as §2, §3, §4
# as §5, with “CDK3/cyclinE” for “CDK1/cyclinB”
# [6] = biological target: CDK2/cyclinE (h) (Homo sapiens, UniProt P24941); assay: Kinase profiling C3.4 CDK2/cyclinE human; settings: test concentration of 10^−6 M
# Description: as §2, §3, §4
# as §5, with “CDK2/cyclinE” for “CDK1/cyclinB”
# [7] = biological target: CDK2/cyclinA (h) (Homo sapiens, UniProt P24941); assay: Kinase profiling C3.3 CDK2/cyclinA human; settings: test concentration of 10^−6 M
# Description: as §2, §3, §4
# as §5, with “CDK2/cyclinA” for “CDK1/cyclinB”
# [8] = biological target: CDK7/cyclinH/MAT1 (h) (Homo sapiens, UniProt P50613); assay: Kinase profiling C3.8 CDK7/cyclinH/MAT1 human; settings: CDK7/cyclinH/MAT1, test concentration of 10^−6 M
# Chain of CDK7/cyclinH/MAT1 (h) (P50613 whole entry): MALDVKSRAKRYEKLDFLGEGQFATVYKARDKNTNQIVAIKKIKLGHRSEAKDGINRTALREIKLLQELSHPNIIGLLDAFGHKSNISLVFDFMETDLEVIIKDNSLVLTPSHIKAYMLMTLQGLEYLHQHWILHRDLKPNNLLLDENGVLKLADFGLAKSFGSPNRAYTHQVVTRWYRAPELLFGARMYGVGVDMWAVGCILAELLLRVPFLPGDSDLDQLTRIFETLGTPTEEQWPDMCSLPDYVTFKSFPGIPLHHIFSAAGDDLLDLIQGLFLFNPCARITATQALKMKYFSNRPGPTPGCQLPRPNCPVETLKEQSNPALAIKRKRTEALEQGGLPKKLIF
# Chain of CDK7/cyclinH/MAT1 (h) (P51946 whole entry partner): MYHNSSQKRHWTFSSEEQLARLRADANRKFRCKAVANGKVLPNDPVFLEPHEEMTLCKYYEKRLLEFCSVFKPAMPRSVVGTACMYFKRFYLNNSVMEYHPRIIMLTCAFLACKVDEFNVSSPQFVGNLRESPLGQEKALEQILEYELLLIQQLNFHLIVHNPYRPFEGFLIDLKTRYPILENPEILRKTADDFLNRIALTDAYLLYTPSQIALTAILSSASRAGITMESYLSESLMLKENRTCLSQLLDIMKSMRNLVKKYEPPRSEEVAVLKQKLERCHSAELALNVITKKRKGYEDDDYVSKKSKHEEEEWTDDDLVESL
# Chain of CDK7/cyclinH/MAT1 (h) (P51948 whole entry partner): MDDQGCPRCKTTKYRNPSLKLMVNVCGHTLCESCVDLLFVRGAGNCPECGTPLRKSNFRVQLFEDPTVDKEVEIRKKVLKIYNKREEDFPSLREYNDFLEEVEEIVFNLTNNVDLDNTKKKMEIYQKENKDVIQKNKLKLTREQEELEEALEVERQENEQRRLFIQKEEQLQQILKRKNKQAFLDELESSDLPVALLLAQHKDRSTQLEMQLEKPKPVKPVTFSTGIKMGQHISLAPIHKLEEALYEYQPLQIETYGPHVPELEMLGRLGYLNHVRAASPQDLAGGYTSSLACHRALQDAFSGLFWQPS
# Description: as §2, §3, §4
# as §5, with “CDK7/cyclinH/MAT1” for “CDK1/cyclinB”, “500 μM peptide,” for “0.1 mg/ml histone H1,”
# Chain of GSK-3β (P49841 whole entry, species assumed): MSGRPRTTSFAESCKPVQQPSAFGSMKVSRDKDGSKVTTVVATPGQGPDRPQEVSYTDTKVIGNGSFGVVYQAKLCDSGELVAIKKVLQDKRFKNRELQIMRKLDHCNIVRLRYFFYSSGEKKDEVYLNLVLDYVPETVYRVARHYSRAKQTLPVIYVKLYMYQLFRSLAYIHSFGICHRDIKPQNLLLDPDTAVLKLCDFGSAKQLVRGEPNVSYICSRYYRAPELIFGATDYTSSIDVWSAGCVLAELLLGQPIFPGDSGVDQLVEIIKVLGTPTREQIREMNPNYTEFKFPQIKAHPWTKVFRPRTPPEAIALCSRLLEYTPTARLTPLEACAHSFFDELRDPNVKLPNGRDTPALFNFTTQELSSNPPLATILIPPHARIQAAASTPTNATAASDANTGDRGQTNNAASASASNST
Structure (SMILES),IC50 [2],other results
O=C1NCCCc2cc(ccn2)-c2ncnc(n2)Nc2cccc(c2)CN2CCC1CC2 [Compound 16],10 to 100 nM,IC50 [1]: 10 to 100 nM
O=C1NCCc2cccc(c2)Nc2ncnc(n2)-c2ccnc(c2)CCCN2CCCC12 (stereo not shown) [Compound 28],100 to 1000 nM,IC50 [1]: 10 to 100 nM
O=C1CCN2CCN(CCCc3cc(ccn3)-c3ncnc(n3)Nc3cccc(c3)CCN1)CC2 [Compound 29],10 to 100 nM,IC50 [1]: 10 to 100 nM
O=C1NCCCc2cc(ccn2)-c2ncnc(n2)Nc2cc(Cl)cc(c2)CN2CCC[C@@H]12 [Compound 38],100 to 1000 nM,C3.2 score [3]: 4 (Score 4 = >80% inhibition); C3.6 score [4]: 2 (Score 2 = 30-60% inhibition); C3.5 score [5]: 3 (Score 3 = 60-80% inhibition); C3.4 score [6]: 4 (Score 4 = >80% inhibition); IC50 [1]: 100 to 1000 nM; C3.3 score [7]: 4 (Score 4 = >80% inhibition); C3.8 score [8]: 3 (Score 3 = 60-80% inhibition)
O=C1NCCCc2cc(ccn2)-c2ncnc(n2)Nc2cc(Cl)cc(c2)CN2CCCC1C2 (stereo not shown) [Compound 39],100 to 1000 nM,C3.2 score [3]: 2 (Score 2 = 30-60% inhibition); C3.6 score [4]: 1 (Score 1 = 10-30% inhibition); C3.5 score [5]: 2 (Score 2 = 30-60% inhibition); C3.4 score [6]: 3 (Score 3 = 60-80% inhibition); IC50 [1]: 10 to 100 nM; C3.3 score [7]: 3 (Score 3 = 60-80% inhibition); C3.8 score [8]: 3 (Score 3 = 60-80% inhibition)
O=C1CNCc2cccc(c2)Nc2ncnc(n2)-c2cccc(c2)CCCN1 [Compound 42],100 to 1000 nM,–
CN1CC(=O)NCCNc2cccc(c2)-c2ncnc(n2)Nc2cccc(c2)C1 [Compound 43],100 to 1000 nM,IC50 [1]: 10 to 100 nM
C[C@@H]1NCc2cccc(c2)Nc2ncnc(n2)-c2cccc(c2)CCCNC1=O [Compound 44],100 to 1000 nM,–
O=C1NCCCc2cccc(c2)-c2ncnc(n2)Nc2cccc(c2)CN[C@H]1Cc1ccccc1 [Compound 45],10 to 100 nM,–
C[C@H]1NCc2cccc(c2)Nc2ncnc(n2)-c2cccc(c2)CCCNC1=O [Compound 47],10 to 100 nM,–
CC1(C)NCc2cccc(c2)Nc2ncnc(n2)-c2cccc(c2)CCCNC1=O [Compound 48],100 to 1000 nM,–
CN1CCC(=O)NCCCc2cccc(c2)-c2ncnc(n2)Nc2cccc(c2)C1 [Compound 49],10 to 100 nM,–
O=C1NCCCc2cccc(c2)-c2ncnc(n2)Nc2cccc(c2)CN2C[C@@H](O)C[C@H]12 [Compound 50],10 to 100 nM,–
O=C1NCCCc2cccc(c2)-c2ncnc(n2)Nc2cccc(c2)CN2CCC1CC2 [Compound 51],10 to 100 nM,–
CN1CCCC(=O)NCCCc2cccc(c2)-c2ncnc(n2)Nc2cccc(c2)C1 [Compound 53],10 to 100 nM,–
O=C1NCCCc2cccc(c2)-c2ncnc(n2)Nc2cccc(c2)CN2CCCC1C2 (stereo not shown) [Compound 55],10 to 100 nM,–

Structure (SMILES),IC50 [2],other results
O=C1NCCCc2cccc(c2)-c2ncnc(n2)Nc2cccc(c2)CN2CCC[C@@H]12 [Compound 56],100 to 1000 nM,–
O=C1CCN2CCN(CC2)Cc2cccc(c2)Nc2ncnc(n2)-c2cccc(c2)CCCN1 [Compound 57],100 to 1000 nM,–
O=C1CCN2CCN(CC2)Cc2cccc(c2)Nc2ncnc(n2)-c2cccc(c2)NCCN1 [Compound 60],100 to 1000 nM,–
O=C1NCCNc2cccc(c2)-c2ncnc(n2)Nc2cccc(c2)CN2CCCC1C2 (stereo not shown) [Compound 61],100 to 1000 nM,–
O=C1NCCNc2cccc(c2)-c2ncnc(n2)Nc2cccc(c2)CN2CCC1CC2 [Compound 62],100 to 1000 nM,–
C[C@@H]1NCc2cccc(c2)Nc2ncnc(n2)-c2cccc(c2)NCCNC1=O [Compound 63],100 to 1000 nM,–
O=C1NCCNc2cccc(c2)-c2ncnc(n2)Nc2cccc(c2)CN[C@H]1Cc1ccccc1 [Compound 64],100 to 1000 nM,–
CN1CCC(=O)NCCCCc2cc(ccn2)-c2ncnc(n2)Nc2cccc(c2)C1 [Compound 68],100 to 1000 nM,–
O=C1NCCOc2ccc(cc2)-c2ncnc(n2)Nc2cccc(c2)CN2CCC1CC2 [Compound 73],100 to 1000 nM,–
O=C1COc2cccc(c2)Nc2ncnc(n2)-c2ccnc(c2)CCCN1 [Compound 74],10 to 100 nM,–
CN1CC(=O)NCCOc2cccc(c2)Nc2ncnc(n2)-c2ccnc(c2)C1 [Compound 76],< 10 nM,–
CN1CC(=O)N2CCN(CCc3cc(ccn3)-c3ncnc(n3)Nc3cccc(c3)C1)CC2 [Compound 77],100 to 1000 nM,–
O=C1COc2cccc(c2)Nc2ncnc(n2)-c2ccnc(c2)CCCN2CCN1CC2 [Compound 78],10 to 100 nM,–
C=CCN1CC(=O)NCCNc2ncccc2-c2ncnc(n2)Nc2cccc(c2)C1 [Compound 79],100 to 1000 nM,–
C[C@H]1NCCCc2cccc(c2)-c2ncnc(n2)Nc2ccccc2CNC1=O [Compound 80],100 to 1000 nM,–
